“Also recorded” adds a separate entry of the source. Like-named read-outs stand apart in the source and are kept apart here.
Legend:
[1] = test system: CD45+ leukocytes of UCB-MNC; conditions: 5.0 μM; 72 hours / day 3; frozen-thawed MNC (FIG. 7)
Experimental: SB203580, DMSO and cytokines alone in serum-free expansion media (SFEM) served as the reference compound, vehicle and blank control, respectively. Data represents mean±SEM for n=3.
Annexin-V-FITC (Beckman Coulter, Inc., USA), 7-AAD (Beckman Coulter, Inc., USA) and CD45-PE-Cy7 were used for CD45+ cell viability analysis.
All compounds were assessed for their ability to maintain the viability of CD45+ leukocytes using Annexin V and 7-AAD. Induction of apoptosis in the CD45+ cells during ex vivo cultures limits expansion of HSPC.

[2] = test system: total nucleated cells (TNC); conditions: for expansion of TNC reduced, compared to 5.0 μM: 11 days (FIG. 9A)
Description: UCB was obtained through Singapore Cord Blood Bank (SCBB), from donated units failing to meet the criteria for clinical banking. Prior consent was obtained from the donating mothers and the Research Advisory Ethics Committee of the SCBB, along with the Institutional Review Boards of National University of Singapore (NUS), and Singapore General Hospital (SGH) approved the usage of the samples. Mononuclear cells (MNC) were isolated from the fresh UCB by density gradient centrifugation using Ficoll-Histopaque™ Premium (GE Healthcare, UK). Counted UCB-MNC was cryopreserved in 90% v/v autologous plasma with 10% v/v dimethyl-sulfoxide (DMSO) (Sigma Aldrich, USA) for subsequent usage. UCB-MNC was thawed using human serum albumin (25% v/v) (Health Sciences Authority, Singapore) and Dextran 40 (75% v/v) (Hospira, USA). […] For certain experiments, cell cultures were initiated with purified populations such as early (CD45+CD34+CD38−) or late (CD45+CD34+CD38+) progenitor cells at optimal plating concentration of 5.0×10^4 cells/ml or 2.0×10^6 cells/ml, respectively. Such pure populations were obtained by labeling the frozen-thawed, non-enriched UCB-MNC using fluorescence conjugated antibodies followed by fluorescence activated cell sorting (FACS). The substituted azole-based small molecules dissolved in DMSO were added to the cultures at an empirically determined optimal concentration of 5.0 μM. UCB-MNC cultures devoid of small molecules but supplemented with cytokines served as control, while cultures supplemented with cytokines and DMSO served as vehicle control.
Cell cultures for in vitro experiments were done in 6- or 24-well plates (BD Falcon, USA), while culturing for in vivo transplantation studies was carried out in T-175 flasks (Corning, USA). Cell cultures were maintained in a humidified, 5% carbon dioxide incubator at 37° C. for the required duration. For UCB expansion evaluation and animal experimentation, an established 10-11-day expansion protocol was used which included cytokine and small molecule replenishment on day 7. At completion of incubation, cells were aspirated from the culture-ware with subsequent rinsing by Dulbecco's phosphate buffered saline (DPBS) (Hyclone, USA). The extracted cells were counted using an automated differential hematology cell counter (COULTER® AcT™ diff Hematology Analyzer, Beckman Coulter Inc, USA) and re-suspended in DPBS for subsequent in vitro analysis or transplantation in mice.

[3] = test system: colony forming unit (CFU) - granulocyte, macrophage (GM); conditions: 5.0 μM; SFEM; 10 days (FIG. 9B)
Experimental: Colony-forming units (CFU) of granulocyte-monocyte (GM) from freshly thawed UCB-MNC or 11 days expanded cells of the mentioned cell cultures were evaluated. Duplicates of freshly thawed UCB-MNC (5,000 and 10,000 cells) and expanded cells (1,000 and 5,000 cells) were cultured in 35 mm petri dishes (BD Falcon, USA) in 1.1 mL of hematopoietic stem cell (HSC)-CFU complete media with erythropoietin (EPO) (Miltenyi Biotec, Germany) without any further media manipulation. After 14-16 days in culture in a humidified environment at 37° C. and 5% CO2, colonies were scored and pictured using a SZ61 Olympus microscope equipped with charge-coupled device (CCD) camera (Olympus Europa GmbH, Germany).

UCB-MNC expanded cells = conditions: 5.0 μM; ACF; 11 days (FIG. 13E)
Experimental: UCB-MNC samples were fixed with modified Carnoy's fixative (Leica Biosystems, Germany) and placed onto glass microscope slides, and then dehydrated through an ethanol (Sigma-Aldrich, USA) series (70%, 85% and 100%) for 2 minutes followed by air-drying.
FISH assays were carried out using a panel of probes (Abbott Molecular, USA) comprising LSI D7S486 SpectrumOrange™/CEP 7 SpectrumGreen™, CEP 8 SpectrumAqua™/LSI MYC SpectrumOrange™, LSI CDKN2A SpectrumOrange™/CEP 9 SpectrumGreen™, LSI ABL1 SpectrumOrange™/BCR SpectrumGreen™ dual fusion translocation probe, LSI MLL dual color break-apart probe, LSI ETV6 SpectrumGreen™/RUNX1 SpectrumOrange™ extra signal dual color translocation probe, and LSI TP53 SpectrumOrange™/CEP 17 SpectrumGreen™ probe set. The FISH probes were applied to the fixed cells and co-denatured at 75° C., followed by an overnight hybridization at 37° C. Washes were performed and the slide was counterstained with DAPI anti-fade solution (Vectashield, Vector Laboratories, USA) and analyzed using an epi-fluorescence microscope (Leica, Germany).
Signals from 100 non-overlapping nuclei were enumerated for loss of LSI D7S486, trisomy 8, loss of CDKN2A, translocation involving ABL1 and BCR, MLL break-apart, translocation involving ETV6 and RUNX1, and loss of TP53. […]

CD34+ cells = conditions: 5.0 μM; 11 days (FIG. 17H)
[4] = test system: HSC2 (CD45+CD34+CD38−CD45RA−CD90+CD49f+); assay: Ex vivo expansion of HSC2 from UCB-MNC; conditions: 5.0 μM; SFEM; over 10 days (FIG. 13C)
Description: Mononuclear cells (MNC) were isolated from the fresh UCB by density gradient centrifugation using Ficoll-Histopaque™ Premium (GE Healthcare, UK). Counted UCB-MNC was cryopreserved in 90% v/v autologous plasma with 10% v/v dimethyl-sulfoxide (DMSO) (Sigma Aldrich, USA) for subsequent usage. UCB-MNC was thawed using human serum albumin (25% v/v) (Health Sciences Authority, Singapore) and Dextran 40 (75% v/v) (Hospira, USA). […] For certain experiments, cell cultures were initiated with purified populations such as early (CD45+CD34+CD38−) or late (CD45+CD34+CD38+) progenitor cells at optimal plating concentration of 5.0×10^4 cells/ml or 2.0×10^6 cells/ml, respectively. Such pure populations were obtained by labeling the frozen-thawed, non-enriched UCB-MNC using fluorescence conjugated antibodies followed by fluorescence activated cell sorting (FACS). The substituted azole-based small molecules dissolved in DMSO were added to the cultures at an empirically determined optimal concentration of 5.0 μM. […]
Cell cultures were maintained in a humidified, 5% carbon dioxide incubator at 37° C. for the required duration. […] The extracted cells were counted using an automated differential hematology cell counter (COULTER® AcT™ diff Hematology Analyzer, Beckman Coulter Inc, USA) and re-suspended in DPBS for subsequent in vitro analysis or transplantation in mice. […]

[5] = test system: hematopoietic progenitor cells (HPC: CD45+CD34+CD38−CD45RA−); assay: Ex vivo expansion of hematopoietic progenitor cells from non-enriched UCB mononuclear cells; conditions: for enhancement of HPC expansion compared to cytokine control: 11 days (FIG. 9A); for relative effectiveness in inducing ex vivo expansion of HPC/HSPC (in words): among all the compounds screened
CD34 cells = conditions: cited from earlier work
[6] = IM-29 mediated expansion of UCB
[7] = 5.0 μM, SFEM, 10 days (FIG. 8C)

With `Fc1ccc(-c2nc(-c3ccc4ccccc4c3F)[nH]c2-c2ccncc2)cc1` [IM-29, 4-[2-(1-fluoronaphthalen-2-yl)-4(5)-(4-fluorophenyl)-1H-imidazol-5(4)-yl]pyridine] as the molecule, how does the “acute toxicity to UCB cells (CD45+ viability)” value [1] read?
The value was “minimal toxicity”.

And the “expansion of TNC reduced, compared to 5.0 μM” value ([2]; 1.0 μM IM-29, ACF)?
The value was 0.83 fold.

And the “increase of total nucleated cells (TNC) compared to starting cell number” value ([2]; 5.0 μM, ACF, by day 11 (FIG. 11))?
Its value is “about 6 fold”.

And the “expansion of TNC reduced, compared to 5.0 μM” value ([2]; 10 μM IM-29, ACF)?
Its value is 0.70 fold.

What about the “increase of total nucleated cells (summary)” value [2, 6] of the same molecule?
The value was “at least 5 fold”.

And the “expansion of colony forming units (CFU) compared to non-cultured cells” value [3]?
The value was “at least 100 fold”.

What about the “FISH results with probes relating to hematological malignancies” value (UCB-MNC expanded cells) of the same molecule?
Its value is “normal results”.

And the “CD34+ cell expansion, fold higher compared to cytokine control cultures” value (CD34+ cells)?
Its value is “approximately 1.9 fold”.

What about the “HSC2 expansion enhancement compared to cytokine-only control” value [4] of the same molecule?
Its value is “at least 7.5 fold”.

And the “enhancement of HPC expansion compared to cytokine control” value ([5]; 1.0 μM, ACF)?
Its value is 2.7 fold.

And the “enhancement effect for HPC expansion compared to cytokine control” value ([5]; 5.0 μM, 10 days (FIG. 8A))?
Its value is 8 fold.

And the “boost of HPC expansion on increasing culturing period from 7 days to 9 days” value ([5]; 5.0 μM, ACF (FIG. 11))?
Its value is “at least 5 fold”.

And the “expansion of HPC, IM-29 added at both day 0 and day 7 (Group 1)” value ([5]; 5.0 μM, ACF, 10 days (FIG. 12))?
Its value is at least 450 fold.

What about the “enhancement of HPC expansion compared to cytokine control” value ([5]; 5.0 μM, ACF) of the same molecule?
The value was 3.6 fold.

And the “HPC-associated expression of CD45+CD34+CD38−CD45RA−” value [5, 7]?
Its value is “about 68%”.

And the “HPC-associated expression, fold higher than cytokine control” value [5, 7]?
The value was 3 fold.

And the “expansion of HPC, IM-29 added at both day 0 and day 7 (Group 1)” value ([5]; 5.0 μM, SFEM, 10 days (FIG. 12))?
Its value is “at least 750 fold”.

And the “enhancement of HPC expansion compared to cytokine control” value ([5]; 10.0 μM, ACF)?
The value was 2.4 fold.

And the “HPC expansion reduced compared to Group 1 when IM-29 not replenished on day 7 (Group 2)” value ([5]; IM-29 at day 0 only, 10 days (FIG. 12))?
Its value is “at least 0.7 fold”.

What about the “expansion of HPC (summary)” value [5, 6] of the same molecule?
Its value is “at least 1,000 fold”.

And the “HPC expansion with IM-29 and a single cytokine” value ([5]; S+IM, T+IM, F+IM or IG+IM (data not shown))?
Its value is “minimal expansion”.

What about the “HPC expansion, fold higher than the four cytokines culture” value ([5]; S+T+F+IG+IM-29 vs four cytokines, ACF, 11 days (FIG. 1)) of the same molecule?
Its value is “at least 4.7 fold”.

What about the HPC expansion ([5]; S+T+F+IM-29 5.0 μM, ACF, 11 days (FIG. 1)) of the same molecule?
The HPC expansion was 1265.2±39.1 fold.

What about the “HPC expansion enhancement effect vs S+T+F” value ([5]; S+T+F+IM-29 vs S+T+F, ACF, 11 days (FIG. 1)) of the same molecule?
The value was 2.6 fold.

And the HPC expansion ([5]; SCF+TPO+FLT-3L+IGFBP-2+IM-29 5.0 μM, ACF, 11 days (FIG. 1))?
Its HPC expansion is 1513.9±6.4 fold.

What about the “relative effectiveness in inducing ex vivo expansion of HPC/HSPC (in words)” value (from here on “relative effectiveness … of HPC/HSPC (in words)”) ([5]; 5.0 μM) of the same molecule?
Its value is “most effective of those tested; also recorded: most effective compound”.

And the “augmentation of HPC expansion when IM-29 is added to basal cocktail” value ([5]; basal cocktail S+IG+T, ACF, 11 days (FIG. 1))?
The value was “two-fold”.

What about the “HPC expansion of Group 1, fold higher than cytokine control Group 3” value ([5]; irrespective of basal culture media, 10 days (FIG. 12)) of the same molecule?
The value was “at least 12 fold”.

And the “effect on expanding HSPC, IM-29 added only at day 7 (Group 4)” value ([5]; not added at start of culture, 10 days (FIG. 12))?
Its value is “negligible effect”.

And the “HPC expansion with IM-29 alone” value ([5]; without any cytokines (data not shown))?
Its value is “did not support the expansion of HPC”.

For `CC(C)n1cnc2c(NCCc3ccc(O)cc3)nc(-c3csc4ccccc34)nc21` [SR-1, stemregenin-1], which “median CD34 expansion” value (CD34 cells; cultures lasting up to 15 days, Wagner et al. 2016) is on record?
Its value is 330 fold.

Which “relative effectiveness … of HPC/HSPC (in words)” value ([5]; 5.0 μM) does the source give for `Cc1cccc(-c2oc(-c3ccc4ccccc4c3F)nc2-c2ccncc2)c1` [OZ-07, 2-(1-fluoronaphthalen-2-yl)-4-(pyridin-4-yl)-5-(m-tolyl)oxazole] here?
The value was “not optimally active”.

With `Cc1cccc(-c2nc(-c3ccc4ccccc4c3F)[nH]c2-c2ccncc2)c1` [IM-04, 4-[2-(1-fluoronaphthalen-2-yl)-4-(m-tolyl)-1H-imidazol-5-yl]pyridine] as the molecule, how does the “relative effectiveness … of HPC/HSPC (in words)” value ([5]; 5.0 μM) read?
The value was “second most effective compound”.

Which “increase of CD34 cells” value (CD34 cells; over 21 days, Horwitz et al. 2014) does the source give for `NC(=O)c1cccnc1` [NAM, nicotinamide] here?
The value was 72 fold.

Which “HPC expansion capacity reduced relative to IM-29” value ([5]; naphthalen-2-yl instead of 1-fluoronaphthalen-2-yl at C2, P<0.001) does the source give for `Fc1ccc(-c2nc(-c3ccc4ccccc4c3)[nH]c2-c2ccncc2)cc1` [ZQX-33, 4-[2-(naphthalen-2-yl)-4(5)-(4-fluorophenyl)-1H-imidazol-5(4)-yl]pyridine] here?
The value was “at least 2 fold”.
